Measurements reported in US6750348B1, “Chemokine receptor binding heterocyclic compounds” (AnorMED, Inc., priority 1999, dated 2004).
Where two headings read alike, the source gives them in different places.

Test system: HIV-1 NL4.3 or IIIB
Test: Inhibition of HIV-1 (NL4.3 or IIIB) replication in MT-4 cells (MTT)
Assay type: cell-based
Details: Human immunodeficiency virus 1, IIIB
Procedure: Compounds were tested for their ability to inhibit HIV-1 replication in MT-4 cells or PBMC's (peripheral blood mononucleocytes) using published procedures (for example, see: Labrosse et al. J. Virol. 1998, 6381-6388; Simmons et al. J. Virol. 1998, 8453-8457; Donzella et al. Nature Medicine 1998, 72-77; Schols et al. J. Exp. Med. 1997, 1383-1388; De Clercq et al. Antiviral Res. 1997, 147-156; and Bridger et al. U.S. patent application Ser. No. 09/111,895). In addition to the above references, experimental methods for performing anti-viral assays can also be found in: Bridger et al. J. Med. Chem. 1995, 38, 366-378; Bridger et al. J. Med. Chem. 1996, 39, 109-119; Bridger et al. U.S. Pat. No. 5,698,546; Bridger et al. U.S. Pat. No. 5,583,131; Bridger et al. U.S. Pat. No. 5,817,807; De Clercq et al. Antimicrob. Agents and Chemother. 1994, 38, 668-674.
1. The HIV-1 strains NL4.3 and IIIB are T-tropic strains that exclusively use CXCR4 as the co-receptor for entry into cells. MT-4 Cells express CXCR4 but not CCR5.
Inhibition of HIV-1 NL4.3 (or IIIB) replication assays were performed as previously described (Bridger et al. J. Med. Chem. 1999, 42, 3971-3981; De Clercq et al. Proc. Natl. Acad. Sci, 1992, 89, 5286-5290; De Clercq et al. Antimicrob. Agents Chemother. 1994, 38, 668-674; Bridger et al. J. Med. Chem. 1995, 38, 366-378). Anti-HIV activity and cytotoxicity measurements were carried out in parallel. They were based on the viability of MT-4 cells that had been infected with HIV in the presence of various concentrations of the test compounds. After the MT-4 cells were allowed to proliferate for 5 days, the number of viable cells was quantified by a tetrazolium-based calorimetric 3-(4,5-dimethylthiazol-2-yl)-2,5-diphenyltetrazolium bromide (MTT) procedure in 96-well microtrays. In all of these assays, viral input (viral multiplicity of infection, MOI) was 0.01, or 100 times the 50% cell culture infective dose (CCID50). The EC50 was defined as the concentration required to protect 50% of the virus-infected cells against viral cytopathicity.

[1] = MT4, read-out: EC50, inhibition of HIV-1 NL4.3 or IIIB replication
[2] = MT4, read-out: EC50, inhibition of HIV-1 NLA.3 or IIIB replication

Row | EC50 [1] [µg/mL] | EC50 [2] [µM] | SMILES
1 | – | < 20 | N#Cc1ccc(CN(Cc2ccc(CNCc3ccccn3)cc2)C2CCCc3cccnc32)cc1 (stereo not shown) [Example 101, N-[(4-cyanophenyl)methyl]-N′-(2-pyridinylmethyl)-N-(5,6,7,8-tetrahydro-8-quinolinyl)-1,4-benzenedimethanamine]
2 | – | < 20 | CC(=O)Nc1ccc(CN(Cc2ccc(CNCc3ccccn3)cc2)C2CCCc3cccnc32)cc1 (stereo not shown) [Example 102, N-[(4-acetamidophenyl)methyl]-N′-(2-pyridinylmethyl)-N-(5,6,7,8-tetrahydro-8-quinolinyl)-1,4-benzenedimethanamine]
3 | – | < 20 | c1ccc(CNCc2ccc(CN(Cc3ccc4c(c3)OCO4)C3CCCc4cccnc43)cc2)nc1 (stereo not shown) [Example 112, N-[(3,4-methylenedioxyphenyl)methyl]-N′-(2-pyridinylmethyl)-N-(5,6,7,8-tetrahydro-8-quinolinyl)-1,4-benzenedimethanamine]
4 | – | < 20 | CCCOc1ccc(CN(Cc2ccc(CNCc3ccccn3)cc2)C2CCCCc3cccnc32)cc1 (stereo not shown) [Example 116, N-[(4-propoxyphenyl)methyl]-N′-(2-pyridinylmethyl)-N-(6,7,8,9-tetrahydro-5H-cyclohepta[b]pyridin-9-yl)-1,4-benzenedimethanamine]
5 | – | < 20 | N#Cc1cccc(CN(Cc2ccc(CNCc3ccccn3)cc2)C2CCCc3cccnc32)c1 (stereo not shown) [Example 121, N-[(3-cyanophenyl)methyl]-N′-(2-pyridinylmethyl)-N-(5,6,7,8-tetrahydro-8-quinolinyl)-1,4-benzenedimethanamine]
6 | – | < 20 | CCc1ccc(CN(Cc2ccc(CNCc3ccccn3)cc2)C2CCCc3cccnc32)s1 (stereo not shown) [Example 123, N-(5-ethylthiophene-2-ylmethyl)-N′-(2-pyridinylmethyl)-N-(5,6,7,8-tetrahydro-8-quinolinyl)-1,4-benzenedimethanamine]
7 | – | < 20 | Fc1cccc(F)c1CN(Cc1ccc(CNCc2ccccn2)cc1)C1CCCc2cccnc21 (stereo not shown) [Example 125, N-[(2,6-difluorophenyl)methyl]-N′-(2-pyridinylmethyl)-N-(5,6,7,8-tetrahydro-8-quinolinyl)-1,4-benzenedimethanamine]
8 | – | < 20 | Fc1ccc(CN(Cc2ccc(CNCc3ccccn3)cc2)C2CCCc3cccnc32)c(F)c1 (stereo not shown) [Example 137, N-[(2,4-difluorophenyl)methyl]-N′-(2-pyridinylmethyl)-N-(5,6,7,8-tetrahydro-8-quinolinyl)-1,4-benzenedimethanamine]
9 | – | < 20 | Cn1cccc1CN(Cc1ccc(CNCc2ccccn2)cc1)C1CCCc2cccnc21 (stereo not shown) [Example 138, N-(1-methylpyrrol-2-ylmethyl)-N′-(2-pyridinylmethyl)-N-(5,6,7,8-tetrahydro-8-quinolinyl)-1,4-benzenedimethanamine]
10 | – | < 20 | Oc1ccccc1CN(Cc1ccc(CNCc2ccccn2)cc1)C1CCCc2cccnc21 (stereo not shown) [Example 139, N-[(2-hydroxyphenyl)methyl]-N′-(2-pyridinylmethyl)-N-(5,6,7,8-tetrahydro-8-quinolinyl)-1,4-benzenedimethanamine]
11 | – | < 20 | c1ccc(CNCc2ccc(CN(Cc3cccnc3)C3CCCc4cccnc43)cc2)nc1 (stereo not shown) [Example 141, N-(3-pyridinylmethyl)-N′-(2-pyridinylmethyl)-N-(5,6,7,8-tetrahydro-8-quinolinyl)-1,4-benzenedimethanamine]

Further lines, the compound ahead of its results:

Row | SMILES | EC50 [1] [µg/mL] | EC50 [2] [µM]
12 | c1ccc(CNCc2ccc(CNC3CCCCc4cccnc43)cc2)nc1 (stereo not shown) [Example 1, N-(2-pyridinylmethyl)-N′-(6,7,8,9-tetrahydro-5H-cyclohepta[b]pyridin-9-yl)-1,4-benzenedimethanamine] | < 20 | –
13 | c1ccc(CNCc2ccc(CNC3CCCc4cccnc43)cc2)nc1 (stereo not shown) [Example 2, N-(2-pyridinylmethyl)-N′-(5,6,7,8-tetrahydro-8-quinolinyl)-1,4-benzenedimethanamine] | < 20 | –
14 | c1ccc(CNCc2ccc(CNC3CCc4cccnc43)cc2)nc1 (stereo not shown) [Example 3, N-(2-pyridinylmethyl)-N′-(6,7-dihydro-5H-cyclopenta[b]pyridin-7-yl)-1,4-benzenedimethanamine] | < 20 | –
15 | c1ccc(CNCc2ccc(CNC3CCCc4ccccc43)cc2)nc1 (stereo not shown) [Example 4, N-(2-pyridinylmethyl)-N′-(1,2,3,4-tetrahydro-1-naphthalenyl)-1,4-benzenedimethanamine] | < 20 | –
16 | O=C(NCCN(Cc1ccc(CNCc2ccccn2)cc1)C1CCCc2cccnc21)c1ccc2ccccc2c1 (stereo not shown) [Example 19, N-(2-pyridinylmethyl)-N′-(2-(2-naphthoyl)aminoethyl)-N′-(5,6,7,8-tetrahydro-8-quinolinyl)-1,4-benzenedimethanamine] | < 20 | –
17 | c1ccc(CNCc2ccc(CN(Cc3nc4ccccc4[nH]3)C3CCCc4cccnc43)cc2)nc1 (stereo not shown) [Example 61, N-(2-pyridinylmethyl)-N′-(1H-benzimidazol-2-ylmethyl)-N′-(5,6,7,8-tetrahydro-8-quinolinyl)-1,4-benzenedimethanamine] | < 20 | –
18 | c1ccc(CCN(Cc2ccc(CNCc3ccccn3)cc2)C2CCCc3cccnc32)cc1 (stereo not shown) [Example 69, N-(2-pyridinylmethyl)-N′-(2-phenylethyl)-N′-(5,6,7,8-tetrahydro-8-quinolinyl)-1,4-benzenedimethanamine] | < 20 | –
19 | c1ccc(CCCN(Cc2ccc(CNCc3ccccn3)cc2)C2CCCc3cccnc32)cc1 (stereo not shown) [Example 70, N-(2-pyridinylmethyl)-N′-(3-phenylpropyl)-N′-(5,6,7,8-tetrahydro-8-quinolinyl)-1,4-benzenedimethanamine] | < 20 | –
20 | COc1cccc(CN(Cc2ccc(CNCc3ccccn3)cc2)C2CCCc3cccnc32)c1OC (stereo not shown) [Example 95, N-[(2,3-dimethoxyphenyl)methyl]-N′-(2-pyridinylmethyl)-N-(5,6,7,8-tetrahydro-8-quinolinyl)-1,4-benzenedimethanamine] | – | < 20
21 | c1ccc(Oc2ccc(CN(Cc3ccc(CNCc4ccccn4)cc3)C3CCCCc4cccnc43)cc2)cc1 (stereo not shown) [Example 103, N-[(4-phenoxyphenyl)methyl]-N′-(2-pyridinylmethyl)-N-(6,7,8,9-tetrahydro-5H-cyclohepta[b]pyridin-9-yl)-1,4-benzenedimethanamine] | – | < 20
22 | c1ccc(COc2ccc(CN(Cc3ccc(CNCc4ccccn4)cc3)C3CCCCc4cccnc43)cc2)cc1 (stereo not shown) [Example 105, N-[(4-benzyloxyphenyl)methyl]-N′-(2-pyridinylmethyl)-N-(6,7,8,9-tetrahydro-5H-cyclohepta[b]pyridin-9-yl)-1,4-benzenedimethanamine] | – | < 20
23 | c1ccc(CNCc2ccc(CN(Cc3cccnc3)C3CCCCc4cccnc43)cc2)nc1 (stereo not shown) [Example 113, N-(3-pyridinylmethyl)-N′-(2-pyridinylmethyl)-N-(6,7,8,9-tetrahydro-5H-cyclohepta[b]pyridin-9-yl)-1,4-benzenedimethanamine] | – | < 20
24 | COc1cc(CN(Cc2ccc(CNCc3ccccn3)cc2)C2CCCCc3cccnc32)cc2c1OCO2 (stereo not shown) [Example 119, N-[(3-methoxy-4,5-methylenedioxyphenyl)methyl]-N′-(2-pyridinylmethyl)-N-(6,7,8,9-tetrahydro-5H-cyclohepta[b]pyridin-9-yl)-1,4-benzenedimethanamine] | – | < 20
25 | Fc1cccc(F)c1CN(Cc1ccc(CNCc2ccccn2)cc1)C1CCCCc2cccnc21 (stereo not shown) [Example 124, N-[(2,6-difluorophenyl)methyl]-N′-(2-pyridinylmethyl)-N-(6,7,8,9-tetrahydro-5H-cyclohepta[b]pyridin-9-yl)-1,4-benzenedimethanamine] | – | < 20
26 | FC(F)Oc1ccccc1CN(Cc1ccc(CNCc2ccccn2)cc1)C1CCCCc2cccnc21 (stereo not shown) [Example 126, N-[(2-difluoromethoxyphenyl)methyl]-N′-(2-pyridinylmethyl)-N-(6,7,8,9-tetrahydro-5H-cyclohepta[b]pyridin-9-yl)-1,4-benzenedimethanamine] | – | < 20
27 | COc1cc(CN(Cc2ccc(CNCc3ccccn3)cc2)C2CCCc3cccnc32)cc2c1OCO2 (stereo not shown) [Example 140, N-[(3-methoxy-4,5-methylenedioxyphenyl)methyl]-N′-(2-pyridinylmethyl)-N-(5,6,7,8-tetrahydro-8-quinolinyl)-1,4-benzenedimethanamine] | – | < 20
28 | Cn1c(CN(Cc2ccc(CNCc3ccccn3)cc2)C2CCCc3cccnc32)nc2ccccc21 (stereo not shown) [Example 144, N-(1-methylbenzimidazol-2-ylmethyl)-N′-(2-pyridinylmethyl)-N-(5,6,7,8-tetrahydro-8-quinolinyl)-1,4-benzenedimethanamine] | – | < 20
